Test system: sarcosine oxidase
Experiment: Influence of metal ions (metal chloride salts) on sarcosine oxidase activity
Assay type: biochemical
Details: sarcosine oxidase activity with metal chloride salt, final concentration 2 mM, None = 100
Method: As shown in the following Table 1, activity of the sarcosine oxidase was greatly influenced by metal ions. Since metal ions were inevitably contained in the sample, EDTA was added at 0.01 to 0.02 g/dL to chelate the metal ions and to prevent activity of the sarcosine oxidase from decreasing due to the metal ions. In this case, when an amount of EDTA added was small, the metal ions were not sufficiently removed. […] In the present example, EDTA4NA was used. However, another substance that can chelate the metal ions could be used. Then, AHMT serving as a chromogen was dissolved at 20 to 50 mM. In this case, when an amount of the reagent added was small, there was no difference in color development between specimens of an intermediate concentration and a high concentration. On the other hand, when an amount of the reagent added was large, discoloration was caused in a natural state, which caused a change in a product or a false positive result.
As shown in the following Table 2, activity of the sarcosine oxidase is greatly influenced by metal ions. When an excessive amount of metal ions was contained in the sample, EDTA was added at 0.01 to 0.02 g/dL in order to chelate and remove the metal ions and prevent activity of the sarcosine oxidase from decreasing due to the metal ions. That is, EDTA serves as a metal adsorber and facilitates activation of the enzymes. In the present example, EDTA4NA was used. However, another substance that can chelate the metal ions could be used. When an amount of EDTA added was small, the metal ions were not sufficiently removed.

Compound: [Cl][Cu][Cl] [Cu^2+]
- Relative activity (%) (Table 1 (first example)): 0%
- Relative activity (%) (Table 2 (second example)): 0%

Compound: [Cl-].[Cl-].[Zn+2] [Zn^2+]
- Relative activity (%) (Table 1 (first example)): 7%
- Relative activity (%) (Table 2 (second example)): 7%

Compound: [Cl][Hg][Cl] [Hg^2+]
- Relative activity (%) (Table 1 (first example)): 0%
- Relative activity (%) (Table 2 (second example)): 0%

Compound: [Cl][Cd][Cl] [Cd^2+]
- Relative activity (%) (Table 1 (first example)): 7%
- Relative activity (%) (Table 2 (second example)): 7%

Compound: [Cl][Ni][Cl] [Ni^2+]
- Relative activity (%) (Table 1 (first example)): 76%
- Relative activity (%) (Table 2 (second example)): 76%

Compound: [Cl-].[Cl-].[Co+2] [Co^2+]
- Relative activity (%) (Table 1 (first example)): 52%
- Relative activity (%) (Table 2 (second example)): 52%

Compound: [Cl][Fe][Cl] [Fe^2+]
- Relative activity (%) (Table 1 (first example)): 66%
- Relative activity (%) (Table 2 (second example)): 66%

Compound: [Cl][Mn][Cl] [Mn^2+]
- Relative activity (%) (Table 1 (first example)): 63%
- Relative activity (%) (Table 2 (second example)): 63%

— US20160222432A1, “TEST STRIP USING FORMALDEHYDE OR PEROXIDE, FROM AMONG SARCOSINE METABOLITES, FOR DIAGNOSING PROSTATE CANCER, AND METHOD FOR DIAGNOSING PROSTATE CANCER USING SAME” (CSQUARE CO., LTD, priority 2013, published 2016)
